{
  "source": "patent US5075440A",
  "about": "“Novel pyrido[2,3-f](1,4)thiazepines and pyrido[3,2-b](1,5)benzothiazepines” (Ortho Pharmaceutical Corporation, priority 1990, dated 1991)",
  "key": {"[1]": {"molecular_target": "T1, Calcium Channel (3H-nitrendipine binding, heart membranes) (Oryctolagus cuniculus, UniProt P15381)", "T1 construct": "the heart is immediately removed, cleaned and chopped into small pieces; The tissue is homogenized; from tissue; host or cells: heart membranes of female New Zealand white rabbits (42,000×g pellet)", "T1 sequence (P15381 whole entry, other chains not shown)": "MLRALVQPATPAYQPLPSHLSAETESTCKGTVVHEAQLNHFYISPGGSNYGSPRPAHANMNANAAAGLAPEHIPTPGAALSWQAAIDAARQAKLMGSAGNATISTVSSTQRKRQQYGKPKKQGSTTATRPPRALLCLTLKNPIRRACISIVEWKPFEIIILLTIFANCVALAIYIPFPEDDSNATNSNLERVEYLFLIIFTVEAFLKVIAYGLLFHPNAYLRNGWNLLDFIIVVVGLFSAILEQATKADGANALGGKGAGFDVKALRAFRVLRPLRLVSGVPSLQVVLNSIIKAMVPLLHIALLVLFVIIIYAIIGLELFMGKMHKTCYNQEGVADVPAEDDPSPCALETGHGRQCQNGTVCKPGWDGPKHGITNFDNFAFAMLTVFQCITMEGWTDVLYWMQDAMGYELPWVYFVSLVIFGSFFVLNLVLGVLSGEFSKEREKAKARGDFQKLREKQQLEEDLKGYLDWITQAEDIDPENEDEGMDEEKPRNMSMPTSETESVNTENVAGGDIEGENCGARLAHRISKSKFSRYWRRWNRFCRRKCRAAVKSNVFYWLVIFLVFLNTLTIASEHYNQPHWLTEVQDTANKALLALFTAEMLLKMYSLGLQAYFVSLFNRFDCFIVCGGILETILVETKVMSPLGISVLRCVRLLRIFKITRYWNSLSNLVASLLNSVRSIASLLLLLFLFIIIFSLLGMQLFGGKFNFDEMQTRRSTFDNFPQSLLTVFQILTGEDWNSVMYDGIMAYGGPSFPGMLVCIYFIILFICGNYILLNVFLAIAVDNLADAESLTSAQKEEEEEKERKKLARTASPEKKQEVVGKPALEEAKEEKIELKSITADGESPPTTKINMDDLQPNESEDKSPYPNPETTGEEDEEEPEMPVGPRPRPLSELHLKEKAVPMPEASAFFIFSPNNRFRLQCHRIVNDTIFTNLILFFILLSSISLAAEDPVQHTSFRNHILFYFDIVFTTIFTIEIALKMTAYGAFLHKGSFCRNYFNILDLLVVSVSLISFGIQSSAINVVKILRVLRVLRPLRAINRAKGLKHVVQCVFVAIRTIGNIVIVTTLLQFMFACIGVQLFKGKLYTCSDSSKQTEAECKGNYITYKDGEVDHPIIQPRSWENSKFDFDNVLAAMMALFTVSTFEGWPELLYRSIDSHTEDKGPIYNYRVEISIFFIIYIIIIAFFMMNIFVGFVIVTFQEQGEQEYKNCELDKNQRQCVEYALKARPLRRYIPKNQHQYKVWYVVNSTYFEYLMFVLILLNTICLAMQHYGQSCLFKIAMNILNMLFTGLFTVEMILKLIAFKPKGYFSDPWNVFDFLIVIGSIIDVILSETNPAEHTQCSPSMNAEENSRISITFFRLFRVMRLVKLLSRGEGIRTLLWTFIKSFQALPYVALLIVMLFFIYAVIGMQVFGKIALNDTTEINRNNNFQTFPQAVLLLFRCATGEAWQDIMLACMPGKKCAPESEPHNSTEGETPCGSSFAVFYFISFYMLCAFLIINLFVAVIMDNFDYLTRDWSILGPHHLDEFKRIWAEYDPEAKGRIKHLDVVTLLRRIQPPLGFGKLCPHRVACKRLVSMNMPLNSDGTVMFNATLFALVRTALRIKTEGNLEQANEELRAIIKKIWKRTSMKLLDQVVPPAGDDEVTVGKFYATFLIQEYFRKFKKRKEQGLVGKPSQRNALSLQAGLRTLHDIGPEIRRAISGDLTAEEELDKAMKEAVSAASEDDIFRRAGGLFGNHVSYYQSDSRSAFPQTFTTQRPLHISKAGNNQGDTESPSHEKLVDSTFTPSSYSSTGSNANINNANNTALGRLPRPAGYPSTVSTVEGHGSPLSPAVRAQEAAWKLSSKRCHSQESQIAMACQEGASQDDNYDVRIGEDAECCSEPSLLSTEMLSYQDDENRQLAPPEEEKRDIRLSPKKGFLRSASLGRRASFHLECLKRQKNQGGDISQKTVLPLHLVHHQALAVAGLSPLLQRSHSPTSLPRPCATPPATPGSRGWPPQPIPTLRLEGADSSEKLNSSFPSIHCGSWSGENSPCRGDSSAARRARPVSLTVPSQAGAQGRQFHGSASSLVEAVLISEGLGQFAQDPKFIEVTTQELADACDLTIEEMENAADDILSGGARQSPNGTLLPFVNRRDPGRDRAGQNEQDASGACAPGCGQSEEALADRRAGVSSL", "T1 sequence (P13806 27-960 partner limits assumed, other chains not shown)": "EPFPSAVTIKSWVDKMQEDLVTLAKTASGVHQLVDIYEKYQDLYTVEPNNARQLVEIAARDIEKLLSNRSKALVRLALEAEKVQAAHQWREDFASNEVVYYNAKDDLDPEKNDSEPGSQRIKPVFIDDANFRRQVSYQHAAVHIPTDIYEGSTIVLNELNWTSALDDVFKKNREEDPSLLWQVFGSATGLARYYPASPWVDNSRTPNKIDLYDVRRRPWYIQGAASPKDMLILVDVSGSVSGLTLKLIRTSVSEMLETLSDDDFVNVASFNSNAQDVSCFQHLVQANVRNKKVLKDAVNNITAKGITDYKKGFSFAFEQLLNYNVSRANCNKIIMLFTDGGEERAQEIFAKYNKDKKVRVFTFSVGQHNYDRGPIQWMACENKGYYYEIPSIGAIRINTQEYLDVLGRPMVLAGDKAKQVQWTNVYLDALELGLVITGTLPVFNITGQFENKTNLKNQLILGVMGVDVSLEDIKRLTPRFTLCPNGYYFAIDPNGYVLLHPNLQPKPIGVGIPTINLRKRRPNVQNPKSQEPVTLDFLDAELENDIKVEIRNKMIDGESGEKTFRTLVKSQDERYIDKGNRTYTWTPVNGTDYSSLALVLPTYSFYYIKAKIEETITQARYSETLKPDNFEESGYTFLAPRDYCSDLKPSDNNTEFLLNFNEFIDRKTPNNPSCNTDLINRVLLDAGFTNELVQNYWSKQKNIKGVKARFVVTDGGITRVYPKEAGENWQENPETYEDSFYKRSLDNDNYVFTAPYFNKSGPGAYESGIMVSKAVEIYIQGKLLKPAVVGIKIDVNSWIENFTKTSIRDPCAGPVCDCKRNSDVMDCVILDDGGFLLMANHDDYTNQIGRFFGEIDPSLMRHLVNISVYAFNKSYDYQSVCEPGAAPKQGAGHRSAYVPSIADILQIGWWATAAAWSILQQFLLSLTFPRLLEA", "T1 sequence (P13806 961-1106 partner limits assumed, other chains not shown)": "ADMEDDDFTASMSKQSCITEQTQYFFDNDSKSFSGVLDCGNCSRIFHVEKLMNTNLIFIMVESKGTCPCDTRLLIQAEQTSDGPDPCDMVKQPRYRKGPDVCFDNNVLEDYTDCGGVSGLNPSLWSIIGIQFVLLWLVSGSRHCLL", "test": "Inhibition of 3H-nitrendipine binding (P#166 Nit. Binding)", "design": "species or system rabbit", "details": "for pIC50: rabbit heart membranes, 3H-nitrendipine 0.05-0.50 nM; for inhibition at 1 µM: @ 1.0 μM test compound", "experimental": "The assay for inhibition of nitrendipine binding is performed using the following procedure:\nFemale, New Zealand white rabbits (1-2 kg) are sacrificed by cervical dislocation, and the heart is immediately removed, cleaned and chopped into small pieces. The tissue is homogenized in 5×volume of 0.05M Hepes buffer, pH 7.4. The homogenate is centrifuged at 4000×g for 10 minutes, and the supernatant is recentrifuged at 42,000×g for 90 minutes. The resulting membrane pellet is resuspended (0.7 ml/g weight) in 0.05M Hepes, pH 7.4 and stored at […] until used. Each tube of the binding assay contains ^3 H-nitrendipine (0.05-0.50 nM), buffer, membranes (0.10 ml), and test compound in a total volume of 1.0 ml. After 90 minutes at 4° C., the bound nitrendipine is separated from the unbound by filtration on Whatman GF/C filters. After rinsing, the filters are dried and counted in a liquid scintillation counter.\nNon-specific binding of ^3 H-nitrendipine (that amount bound in the presence of excess unlabelled nitrendipine) is subtracted from the total bound to obtain specifically bound radiolabeled nitrendipine. The amount of specifically bound nitrendipine in the presence of a test compound is compared to that amount bound in the absence of a compound. A percent displacement (or inhibition) can then be obtained."}, "aorta tissue": {"tested_on": "aorta tissue", "test": "Inhibition of calcium dependent smooth muscle contraction, aorta (P#176 Aorta)", "design": "species or system dog", "details": "Canis lupus familiaris, 50 mM KCl contraction, read-out: P#176 Aorta % INHB/μM", "experimental": "(§1) The test for inhibition of calcium dependent smooth muscle contraction is determined according to the following procedure:\n(§2) The trachea and the aorta from dogs sacrificed by excess KCl injection are stored overnight at 4° C. in oxygenated Krebs-Henseleit buffer. Tracheal rings, one cartilage segment wide (5-10 mm), are cut starting from the bronchial end. Rings of aorta tissue of the same width are also prepared. After cutting the cartilage, the trachealis muscle tissue and the aorta tissue are suspended in oxygenated Krebs-Henseleit buffer at 37° C. in a 25 ml tissue bath. After a 60-minute equilibration period, the tissues are challenged with 10 μM carbachol. After 5 minutes, the tissues are rinsed and allowed to rest 50 minutes. The tissues are then challenged with 50 mM KCl and, after 30 minutes, the contractions are quantitated. The tissues are then rinsed and reequilibrated for 50 minutes. Test compounds are then added for 10 minutes, and the tissue is rechallenged with 50 mM KCl. After 30 minutes, the contraction is recorded and used to determine the % inhibition of control.\n(§3) The percent inhibition of smooth muscle contraction is calculated from response data before and after drug treatment. [formula]"}, "trachealis muscle tissue": {"tested_on": "trachealis muscle tissue", "test": "Inhibition of calcium dependent smooth muscle contraction, trachea (P#176 Trach)", "design": "species or system dog", "details": "Canis lupus familiaris, 50 mM KCl contraction, read-out: P#176 Trach % INHB/μM", "experimental": "as §1, §2, §3"}},
  "note": "pIC50: −log10 of the molar value.",
  "data": [
    {"smiles": "CCOC(=O)C1=C(C)NC2=C(C1c1cccc(Cl)c1Cl)S(=O)(=O)CCN(C)C2", "note": "(stereo not shown) [2,3-dichloro / Me / ethyl, Ethyl 9-(2,3-dichlorophenyl)-4,7-dimethy-1,1-dioxo-2,3,4,5,6,9-hexahydropyrido[2,3-f][1,4]thiazepine-8-carboxylate]", "values": [
      {"measurement": "pIC50", "setting": "[1]", "result": 6.92},
      {"measurement": "inhibition at 0.01 µM", "setting": "aorta tissue", "result": 67, "unit": "%"},
      {"measurement": "inhibition at 0.1 µM", "setting": "aorta tissue", "result": 96, "unit": "%"},
      {"measurement": "inhibition at 1 µM", "setting": "aorta tissue", "result": 97, "unit": "%"},
      {"measurement": "inhibition at 0.01 µM", "setting": "trachealis muscle tissue", "result": 55, "unit": "%"},
      {"measurement": "inhibition at 0.1 µM", "setting": "trachealis muscle tissue", "result": 80, "unit": "%"},
      {"measurement": "inhibition at 2 µM", "setting": "trachealis muscle tissue", "result": 98, "unit": "%"}
    ]},
    {"smiles": "CCCN1CCS(=O)(=O)C2=C(C1)NC(C)=C(C(=O)OCC)C2c1cccc(Cl)c1Cl", "note": "(stereo not shown) [2,3-dichloro / Pr / ethyl]", "values": [
      {"measurement": "pIC50", "setting": "[1]", "result": 6.84},
      {"measurement": "inhibition at 0.01 µM", "setting": "aorta tissue", "result": 53, "unit": "%"},
      {"measurement": "inhibition at 0.1 µM", "setting": "aorta tissue", "result": 88, "unit": "%"},
      {"measurement": "inhibition at 1 µM", "setting": "aorta tissue", "result": 100, "unit": "%"},
      {"measurement": "inhibition at 0.03 µM", "setting": "trachealis muscle tissue", "result": 30, "unit": "%"},
      {"measurement": "inhibition at 0.1 µM", "setting": "trachealis muscle tissue", "result": 44, "unit": "%"},
      {"measurement": "inhibition at 0.3 µM", "setting": "trachealis muscle tissue", "result": 53, "unit": "%"},
      {"measurement": "inhibition at 2 µM", "setting": "trachealis muscle tissue", "result": 68, "unit": "%"}
    ]},
    {"smiles": "CCOC(=O)C1=C(C)NC2=C(C1c1cccc(Cl)c1Cl)S(=O)(=O)CCN(C(C)C)C2", "note": "(stereo not shown) [2,3-dichloro / iPr / ethyl]", "values": [
      {"measurement": "pIC50", "setting": "[1]", "result": 7.14},
      {"measurement": "inhibition at 0.01 µM", "setting": "aorta tissue", "result": 38, "unit": "%"},
      {"measurement": "inhibition at 0.1 µM", "setting": "aorta tissue", "result": 83, "unit": "%"},
      {"measurement": "inhibition at 1 µM", "setting": "aorta tissue", "result": 95, "unit": "%"},
      {"measurement": "inhibition at 0.1 µM", "setting": "trachealis muscle tissue", "result": 37, "unit": "%"},
      {"measurement": "inhibition at 0.3 µM", "setting": "trachealis muscle tissue", "result": 61, "unit": "%"},
      {"measurement": "inhibition at 2 µM", "setting": "trachealis muscle tissue", "result": 86, "unit": "%"}
    ]},
    {"smiles": "CCOC(=O)C1=C(C)NC2=C(C1c1ccccc1C(F)(F)F)S(=O)(=O)CCN(C(=O)OC(C)(C)C)C2", "note": "(stereo not shown) [2-CF3 / BOC / ethyl]", "values": [
      {"measurement": "inhibition at 1 µM", "setting": "[1]", "result": 7, "unit": "%"},
      {"measurement": "inhibition at 0.1 µM", "setting": "aorta tissue", "result": 37, "unit": "%"},
      {"measurement": "inhibition at 1 µM", "setting": "aorta tissue", "result": 47, "unit": "%"},
      {"measurement": "inhibition at 0.3 µM", "setting": "trachealis muscle tissue", "result": 24, "unit": "%"},
      {"measurement": "inhibition at 2 µM", "setting": "trachealis muscle tissue", "result": 50, "unit": "%"}
    ]},
    {"smiles": "CCOC(=O)C1=C(C)NC2=C(C1c1ccccc1C(F)(F)F)S(=O)(=O)CCNC2", "note": "(stereo not shown) [2-CF3 / H / ethyl]", "values": [
      {"measurement": "pIC50", "setting": "[1]", "result": 6.44},
      {"measurement": "inhibition at 0.01 µM", "setting": "aorta tissue", "result": 37, "unit": "%"},
      {"measurement": "inhibition at 0.1 µM", "setting": "aorta tissue", "result": 68, "unit": "%"},
      {"measurement": "inhibition at 1 µM", "setting": "aorta tissue", "result": 83, "unit": "%"},
      {"measurement": "inhibition at 0.1 µM", "setting": "trachealis muscle tissue", "result": 38, "unit": "%"},
      {"measurement": "inhibition at 0.3 µM", "setting": "trachealis muscle tissue", "result": 35, "unit": "%"},
      {"measurement": "inhibition at 2 µM", "setting": "trachealis muscle tissue", "result": 73, "unit": "%"}
    ]},
    {"smiles": "CCOC(=O)C1=C(C)NC2=C(C1c1c(F)cccc1Cl)S(=O)(=O)CCNC2", "note": "(stereo not shown) [2-Cl, 6-F / H / ethyl]", "values": [
      {"measurement": "pIC50", "setting": "[1]", "result": 6.06},
      {"measurement": "inhibition at 0.01 µM", "setting": "aorta tissue", "result": 4.8, "unit": "%"},
      {"measurement": "inhibition at 1 µM", "setting": "aorta tissue", "result": 86, "unit": "%"},
      {"measurement": "inhibition at 0.3 µM", "setting": "trachealis muscle tissue", "result": 56, "unit": "%"},
      {"measurement": "inhibition at 2 µM", "setting": "trachealis muscle tissue", "result": 88, "unit": "%"}
    ]},
    {"smiles": "CCOC(=O)C1=C(C)NC2=C(C1c1cccc([N+](=O)[O-])c1)S(=O)(=O)CCNC2", "note": "(stereo not shown) [3-nitro / H / ethyl]", "values": [
      {"measurement": "pIC50", "setting": "[1]", "result": 6.62},
      {"measurement": "inhibition at 0.1 µM", "setting": "aorta tissue", "result": 88, "unit": "%"},
      {"measurement": "inhibition at 1 µM", "setting": "aorta tissue", "result": 100, "unit": "%"},
      {"measurement": "inhibition at 0.03 µM", "setting": "trachealis muscle tissue", "result": 58, "unit": "%"},
      {"measurement": "inhibition at 2 µM", "setting": "trachealis muscle tissue", "result": 93, "unit": "%"}
    ]},
    {"smiles": "CCOC(=O)C1=C(C)NC2=C(C1c1c(F)c(F)c(F)c(F)c1F)S(=O)(=O)CCN(C(=O)OC(C)(C)C)C2", "note": "(stereo not shown) [pentafluoro / BOC / ethyl]", "values": [
      {"measurement": "inhibition at 1 µM", "setting": "[1]", "result": 24, "unit": "%"},
      {"measurement": "inhibition at 0.1 µM", "setting": "aorta tissue", "result": 0, "unit": "%"},
      {"measurement": "inhibition at 1 µM", "setting": "aorta tissue", "result": 37, "unit": "%"},
      {"measurement": "inhibition at 2 µM", "setting": "trachealis muscle tissue", "result": 7, "unit": "%"}
    ]},
    {"smiles": "CCOC(=O)C1=C(C)NC2=C(C1c1c(F)c(F)c(F)c(F)c1F)S(=O)(=O)CCNC2", "note": "(stereo not shown) [pentafluoro / H / ethyl, Ethyl 1,1-dioxo-2,3,4,5,6,9-hexahydro-7-methyl-9-(2,3,4,5,6-pentafluorophenyl)-pyrido[2,3-f][1,4]-thiazepine-8-carboxylate]", "values": [
      {"measurement": "pIC50", "setting": "[1]", "result": 7.05},
      {"measurement": "inhibition at 0.01 µM", "setting": "aorta tissue", "result": 61, "unit": "%"},
      {"measurement": "inhibition at 0.1 µM", "setting": "aorta tissue", "result": 89, "unit": "%"},
      {"measurement": "inhibition at 1 µM", "setting": "aorta tissue", "result": 95, "unit": "%"},
      {"measurement": "inhibition at 0.01 µM", "setting": "trachealis muscle tissue", "result": 13, "unit": "%"},
      {"measurement": "inhibition at 0.1 µM", "setting": "trachealis muscle tissue", "result": 63, "unit": "%"},
      {"measurement": "inhibition at 2 µM", "setting": "trachealis muscle tissue", "result": 98, "unit": "%"}
    ]},
    {"smiles": "CCOC(=O)C1=C(C)NC2=C(C1c1c(F)c(F)c(F)c(F)c1F)S(=O)(=O)CCN(C)C2", "note": "(stereo not shown) [pentafluoro / Me / ethyl, Ethyl 4,7-dimethyl-1,1-dioxo-2,3,4,5,6,9-hexahydro-9-(2,3,4,5,6-pentafluorophenyl)-pyrido[2,3-f][1,4]-thiazepine-8-carboxylate]", "values": [
      {"measurement": "pIC50", "setting": "[1]", "result": 7.28},
      {"measurement": "inhibition at 0.01 µM", "setting": "aorta tissue", "result": 50, "unit": "%"},
      {"measurement": "inhibition at 1 µM", "setting": "aorta tissue", "result": 97, "unit": "%"},
      {"measurement": "inhibition at 0.01 µM", "setting": "trachealis muscle tissue", "result": 35, "unit": "%"},
      {"measurement": "inhibition at 0.1 µM", "setting": "trachealis muscle tissue", "result": 73, "unit": "%"},
      {"measurement": "inhibition at 1 µM", "setting": "trachealis muscle tissue; 1.0 μM", "result": 95, "unit": "%"}
    ]}
  ]
}
